We go through four compounds from patent US20140296176A1, “COMBINATION CANCER THERAPY WITH AN HSP90 INHIBITOR AND AN ANTIMETABOLITE” (Synta Pharmaceuticals Corp., priority 2011, published 2014).

The subject of experiment [1] is HCT-116 colorectal cancer cells. Kind of experiment: alamarBlue cell viability assay, HCT-116 cells. The experiment is classed as cell-based. The following applies: Homo sapiens, 72 hr drug exposure. The protocol: Human HCT-116 colorectal cancer cells (CRC) were purchased from the American Type Culture Collection (Manassas, Va.) and grown in McCoy's 5a media (Sigma), following ATCC recommendations, in the presence of fetal bovine serum (10%), 2 mM L-glutamine and antibiotics (100 IU/ml penicillin and 100 μg/ml streptomycin, Sigma). Cells were maintained at 37° C., 5% CO2 atmosphere.
Cell viability was measured using the alamarBlue assay (Invitrogen). In brief, cells were plated in 96-well plates in triplicate at 5K cells per well and incubated at 37° C., 5% CO2 atmosphere for 24 hr prior to the addition of drug or vehicle (0.3% DMSO) to the culture medium. […] Fluorescence (560EX/590EM nM) was measured with a SpectraMax microplate reader (Molecular Devices) and the resulting data were used to calculate cell viability, normalized to vehicle control.
After HCT-116 cells were exposed to drug for 72 hr, cell viability was measured and results were fit to a four parameter logistic model (XLFit, ID Business Solutions).
Combinations between ganetespib and fluorouracil were then performed in HCT-116 cells concurrently based on the IC50 for each agent in matrix format with 54 combination pairs for each drug. The combined drugs, as well as each drug alone, were incubated with the cells for 3 days and the surviving fraction of cells relative to control was determined using the alamarBlue assay.

Another experiment relates to MOLT-4 cells. Kind of experiment: alamarBlue cell viability assay, MOLT-4 cells. The note with it: Homo sapiens, 72 hr drug exposure, four parameter logistic fit. Type of experiment: cell-based. The protocol: Human MOLT-3, MOLT-4 and Jurkat T cell leukemia cells were purchased from the American Type Culture Collection (Manassas, Va.) and grown in RPMI (Sigma), following ATCC recommendations, in the presence of fetal bovine serum (10%), 2 mM L-glutamine and antibiotics (100 IU/ml penicillin and 100 μg/ml streptomycin, Sigma). Cells were maintained at 37° C., 5% CO2 atmosphere.
Cell viability was measured using the alamarBlue assay (Invitrogen). In brief, cells were plated in 96-well plates in triplicate at 20K, 15K or 15K cells per well for MOLT-3, MOLT-4 or Jurkat cells respectively, and incubated at 37° C., 5% CO2 atmosphere for 24 hr prior to the addition of drug or vehicle (0.3% DMSO) to the culture medium. After 72 hr, 10 μl/well Alamar Blue was added to the wells and incubated for an additional 3 hr at 37° C., 5% CO2 atmosphere. Fluorescence (560EX/590EM nM) was measured with a SpectraMax microplate reader (Molecular Devices) and the resulting data were used to calculate cell viability, normalized to vehicle control.
After MOLT-4 cells were exposed to drug for 72 hr, cell viability was measured and results were fit to a four parameter logistic model (XLFit, ID Business Solutions) shown in FIG. 1.
Combinations between ganetespib and the nucleoside analog Ara-G were then performed in MOLT-4 cells concurrently based on the IC50 for each agent. The combined drugs, as well as each drug alone, were incubated with the cells for 3 days and the surviving fraction of cells relative to control was determined using the alamarBlue assay.
(In general: The colour change of resazurin is a common sign of viable cells or microbes.)

Experiment [2] concerns KRAS substrates, including BRAF and CRAF. Kind of experiment: destabilization of KRAS substrates in KRAS mutant NSCLC cells. Type of experiment: cell-based, human. The following applies: leading to inactivation of downstream effectors and programmed cell death.
Experiment [3] deals with KRAS mutant NSCLC cell lines. Kind of experiment: cell viability in panel of KRAS mutant NSCLC cell lines. Type of experiment: cell-based. The following applies: Homo sapiens; across 15 KRAS mutant NSCLC cell lines in vitro.
Experimental: For combinatorial analysis, cells were seeded in 96-well plates at a predetermined, optimum growth density for 24 h prior to the addition of drug or vehicle to the culture medium. Drug combinations were applied at a non-constant ratio over a range of concentrations for 72 or 96 hours. […] Cell viability was assessed by either AlamarBlue® (Invitrogen, Carlsbad, Calif.) or CellTiter-Glo® assays and normalized to vehicle controls. For each combination study, the level of growth inhibition (fraction affected) is plotted relative to vehicle control. Data are presented as one relevant combination point and the corresponding single agent data for each cell line tested.
Experiment [4] has as its system human KRAS mutant NSCLC tumor xenografts. Kind of experiment: KRAS mutant NSCLC tumor xenografts in vivo. Set-up: species or system mouse.
For experiment [5], the system named is NSCLC having a KRAS mutation. Kind of experiment: Phase 2 trial with ganetespib. The following applies: at 8 weeks. The experiment is classed as in vivo, human.

Bounds are passed on as bounds.

For orientation: IC50 means the midpoint of a concentration-inhibition curve. With `O=c1[nH]cc(F)c(=O)[nH]1` [5-FU, 5-fluorouracil, reference compound], the IC50 in experiment [1] is about 4500 nM.
For `Nc1ccn([C@@H]2O[C@H](CO)[C@@H](O)[C@@H]2O)c(=O)n1` [Ara-C, cytarabine], the half-inhibitory concentration (IC50) with MOLT-4 cells was about 25 nM.
With `COc1nc(N)nc2c1ncn2[C@@H]1O[C@H](CO)[C@@H](O)[C@@H]1O` [Ara-G, nelarabine], the IC50 in the experiment on MOLT-4 cells was about 2000 nM.
For `CC(C)c1cc(-c2nnc(O)n2-c2ccc3c(ccn3C)c2)c(O)cc1O` [ganetespib, 3-(2,4-dihydroxy-5-isopropyl-phenyl)-4-(1-methyl-indol-5-yl)-5-hydroxy-[1,2,4]triazole], the 50% inhibitory concentration (IC50) in the experiment on MOLT-4 cells is about 20 nM; in experiment [3] it was 24 nM; in experiment [1], about 32 nM. For the same compound, the “destabilization of KRAS substrates” value in experiment [2] is “induced the destabilization”. Moreover, the “growth of tumor xenografts” value in experiment [4] is given as “effectively suppressed the growth”. In addition, the “patients exhibiting tumor shrinkage” value in experiment [5] was over 60%.
